Paper PMC8320897, “Inhibition of PI3K and MAPK pathways along with KIT inhibitors as a strategy to overcome drug resistance in gastrointestinal stromal tumors” (PLoS ONE, 2021)
Read-outs that look alike come from different tables or passages of the source.

Assays:
[1] = tested on: GIST-T1; assay: Cell proliferation assay (Cell Counting Kit-8), drug screen; format: cell-based, human; settings: read-out: IC50 GIST-T1
[2] = tested on: GIST-T1/670; assay: Cell proliferation assay (Cell Counting Kit-8); format: cell-based, human; settings: read-out: IC50 T1/670
[3] = tested on: GIST-T1/10R; assay: Cell proliferation assay (Cell Counting Kit-8); format: cell-based, human; settings: read-out: IC50 T1-10R
[4] = tested on: GIST882; assay: Cell proliferation assay (Cell Counting Kit-8), drug screen; format: cell-based; settings: read-out: IC50 GIST882
[5] = tested on: imatinib sensitive cell lines; assay: Cell proliferation assay; format: cell-based
[6] = tested on: MCF7; assay: Cell proliferation assay, control cell line; settings: Homo sapiens, MCF7, 72 h, read-out: IC50 MCF7
[7] = tested on: MRC5; assay: Cell proliferation assay, control cell line; settings: Homo sapiens, MRC5, 72 h, read-out: IC50 MRC5
[8] = tested on: p-MAPK; assay: Immunoblot analysis of p-MAPK (p-ERK); format: cell-based; settings: 24 h
[9] = tested on: GIST-T1/670; assay: Caspase 3/7 apoptosis assay; format: cell-based, human; settings: GIST-T1/670, 48 h
Text: (§1) Inhibitor concentrations used were as mentioned in figure legends.
(§2) Fig 4 Combined Inhibition of KIT, PI3K and MAPK signaling pathways induces apoptosis in GIST cells. […] The data is represented as percent increase over untreated cells; each column represents mean of triplicates. […] (***p<0.0001); (**p<0.001); (*p<0.05).

[10] = tested on: GIST-T1; assay: Caspase 3/7 apoptosis assay; format: cell-based, human; settings: GIST-T1, 48 h, single agent
Text: as §1, §2

[11] = tested on: metastatic GIST; settings: cited from earlier work
[12] = Homo sapiens, GISTT1, cell viability after 72 hours of treatment
[13] = Homo sapiens, GIST882, cell viability after 72 hours of treatment
[14] = cell viability after 72 hours of treatment

Row | Compound | IC50 [1, 12] [µM] | IC50 [2, 12] [µM] | IC50 [3, 12] [µM] | IC50 [4, 13] [µM] | also measured
1 | CO[C@H]1C[C@@H]2CC[C@@H](C)[C@@](O)(O2)C(=O)C(=O)N2CCCC[C@H]2C(=O)O[C@H]([C@H](C)C[C@@H]2CC[C@@H](OC(=O)C(C)(CO)CO)[C@H](OC)C2)CC(=O)[C@H](C)/C=C(\C)[C@@H](O)[C@@H](OC)C(=O)[C@H](C)C[C@H](C)/C=C/C=C/C=C/1C [Temsirolimus] | > 100 | > 100 | > 100 | > 100 | 
2 | Oc1c2ccccc2c2c3c(cccc13)N=N2 [SP600125] | 1 | 1 | 1 | 1 | 
3 | Cc1cc([N+](=O)[O-])ccc1NS(=O)(=O)c1cc(Cl)ccc1Cl [FH535] |  |  |  |  | IC50 [1, 14]: > 30 µM; IC50 [2, 14]: > 15 µM; IC50 [3, 14]: > 15 µM; IC50 [4, 14]: > 30 µM
4 | C[C@]12O[C@H](C[C@]1(O)CO)n1c3ccccc3c3c4c(c5c6ccccc6n2c5c31)CNC4=O [Lestaurtinib] | 0.1 | 5 | 5 | > 10 | concentration that inhibited the proliferation of imatinib sensitive cell lines ([5]; 72 h): < 0.5 µM; IC50 [6]: > 10 µM; IC50 [7]: > 10 µM
5 | Cc1ccc(Nc2nccc(N(C)c3ccc4c(C)n(C)nc4c3)n2)cc1S(N)(=O)=O [Pazopanib] | 0.025 | > 5 | > 1 | 0.5 | IC50 [6]: > 10 µM; IC50 [7]: > 10 µM
6 | O=C(NOC[C@H](O)CO)c1ccc(F)c(F)c1Nc1ccc(I)cc1F [PD325901] |  |  |  |  | IC50 ([1]; Homo sapiens, GISTT1, 72 h): 0.5 µM; IC50 ([2]; Homo sapiens, GISTT1, 72 h): 1 µM; IC50 ([3]; Homo sapiens, GISTT1, 72 h): 1 µM; IC50 ([4]; Homo sapiens, GIST882, 72 h): 0.5 µM; concentration that inhibited the proliferation of imatinib sensitive cell lines ([5]; 72 h): < 0.5 µM; inhibition of p-MAPK ([8]; 100 nM, any of the cell lines tested, western blot): not sufficient to inhibit; inhibition at 0.5 µM ([8]; read-out: inhibition of p-MAPK): ~80%; increase in apoptosis (caspase 3/7 activity) ([9]; over untreated cells): about two
7 | COc1c(C[C@@H](C)OC(=O)Oc2ccc(O)cc2)c2c3c(C[C@@H](C)OC(=O)c4ccccc4)c(OC)c(=O)c4c(O)cc(OC)c(c5c(OC)cc(O)c(c1=O)c52)c43 [Calphostin C] |  |  |  |  | IC50 ([1]; Homo sapiens, GISTT1, 72 h): 0.1 µM; IC50 ([2]; Homo sapiens, GISTT1, 72 h): > 1 µM; IC50 ([3]; Homo sapiens, GISTT1, 72 h): > 1 µM; IC50 ([4]; Homo sapiens, GIST882, 72 h): 0.1 µM; concentration that inhibited the proliferation of imatinib sensitive cell lines ([5]; 72 h): < 0.5 µM
8 | O=C(O)c1cc(N(Cc2ccccc2O)Cc2cc(O)ccc2O)ccc1O [Lavendustin A] | > 100 | > 15 | > 15 | > 100 | 
9 | C[C@H]1O[C@@H](O[C@H]2[C@@H](O)C[C@H](O[C@H]3[C@@H](O)C[C@H](O[C@H]4CC[C@@]5(C)[C@H](CC[C@@H]6[C@@H]5CC[C@]5(C)[C@@H](C7=CC(=O)OC7)CC[C@]65O)C4)O[C@@H]3C)O[C@@H]2C)C[C@H](O)[C@@H]1O [Digitoxin] | < 0.1 | 0.5 | 0.5 | < 0.5 | concentration that inhibited the proliferation of imatinib sensitive cell lines [5]: < 0.5 µM
10 | O=C1CCc2c(ccc3ccccc23)O1 [Splitomicin] | > 10 | > 10 | > 10 | 15 | IC50 [6]: > 10 µM; IC50 [7]: > 10 µM
11 | CCc1c2c(nc3ccc(OC(=O)N4CCC(N5CCCCC5)CC4)cc13)-c1cc3c(c(=O)n1C2)COC(=O)[C@]3(O)CC [Irinotecan] | 0.5 | 5 | 5 | 0.5 | concentration that inhibited the proliferation of imatinib sensitive cell lines ([5]; 72 h): < 0.5 µM; IC50 [6]: 5 µM; IC50 [7]: 5 µM
12 | CNC(=O)c1cc(Oc2ccc(NC(=O)Nc3ccc(Cl)c(C(F)(F)F)c3)c(F)c2)ccn1 [Regorafenib] | < 0.1 | 1 | 1 | < 0.1 | induction of apoptosis (caspase 3/7 activity) ([9]; single agent): able to induce apoptosis effectively; induction of apoptosis (caspase 3/7 activity) [10]: did not induce apoptosis; time until resistance occurs ([11]; second-line / third-line therapy): 6–12 months; IC50 [6]: > 10 µM; IC50 [7]: > 10 µM
13 | Sarcatanib |  |  |  |  | IC50 [1, 14]: 5 µM; IC50 [2, 14]: > 10 µM; IC50 [3, 14]: > 10 µM; IC50 [4, 14]: 1 µM
14 | Nc1ncnc2c1c(I)cn2[C@@H]1O[C@H](CO)[C@@H](O)[C@H]1O [5-iodotubercidin] |  |  |  |  | IC50 [1, 14]: ≥ 5 µM; IC50 [2, 14]: ≥ 5 µM; IC50 [3, 14]: ≥ 5 µM; IC50 [4, 14]: ≥ 5 µM
15 | O=C1Nc2ccccc2/C1=C1/Nc2ccccc2/C1=N\O [Indirubin-3’-Monoxime] |  |  |  |  | IC50 [1, 14]: > 10 µM; IC50 [2, 14]: > 10 µM; IC50 [3, 14]: > 10 µM; IC50 [4, 14]: > 10 µM
16 | O=S(=O)(c1cccc2cnccc12)N1CCCNCC1 [Fasudil] | ~70 | ~70 | ~70 | ~70 | 
17 | O=c1c(-c2ccc(O)cc2)coc2cc(O)cc(O)c12 [Genistein] | > 50 | > 50 | > 50 | > 50 | 
18 | CCn1c(=O)c(-c2cc(NC(=O)Nc3ccccc3)c(F)cc2Br)cc2cnc(NC)cc21 [Ripretinib] |  |  |  |  | mean progression-free survival ([11]; 4th line therapy): 6.3 months
19 | O=C1CCC(N2C(=O)c3ccccc3C2=O)C(=O)N1 (stereo not shown) [Thalidomide] | > 100 | > 100 | > 100 | > 100 | 
20 | O=C1C=CC(=O)c2c(O)cccc21 [Juglone] | 5 | 5 | 5 | 5 | 
21 | Cc1nc(Nc2ncc(C(=O)Nc3c(C)cccc3Cl)s2)cc(N2CCN(CCO)CC2)n1 [Dasatinib] | 0.025 | > 10 | > 10 | < 0.1 | 
22 | Cc1cc(Nc2cc(N3CCN(C)CC3)nc(Sc3ccc(NC(=O)C4CC4)cc3)n2)[nH]n1 [Tozasertib] | 5 | > 10 | > 10 | 5 | IC50 [6]: 5 µM; IC50 [7]: 5 µM
23 | Cc1ccc(NC(=O)c2ccc(CN3CCN(C)CC3)cc2)cc1Nc1nc(-c2cccnc2)cs1 [Masatinib] | 0.025 | 5 | 5 | 0.05 | 
24 | CC(C)(C)c1nc2c3cc[nH]c(=O)c3c3cc(F)ccc3c2[nH]1 [JAK Inhibitor 1] |  |  |  |  | IC50 [1, 14]: > 10 µM; IC50 [2, 14]: > 15 µM; IC50 [3, 14]: > 15 µM; IC50 [4, 14]: > 10 µM
25 | Clc1ccc(Nc2nnc(Cc3ccncc3)c3ccccc23)cc1 [Vatalanib] | 0.1 | > 10 | > 10 | 1 | IC50 [6]: > 10 µM; IC50 [7]: > 10 µM
26 | c1cc(-c2cnn3cc(-c4ccc(OCCN5CCCCC5)cc4)cnc23)ccn1 [Compound C] |  |  |  |  | IC50 [1, 14]: < 0.1 µM; IC50 [2, 14]: 5 µM; IC50 [3, 14]: 5 µM; IC50 [4, 14]: < 0.1 µM; concentration that inhibited the proliferation of imatinib sensitive cell lines ([5]; 72 h): < 0.5 µM
27 | Cc1cn(-c2cc(NC(=O)c3ccc(C)c(Nc4nccc(-c5cccnc5)n4)c3)cc(C(F)(F)F)c2)cn1 [Nilotinib] | 0.025 | > 10 | > 10 | 0.025 | 
28 | Nc1ncnc2c1nc(Br)n2C1OC2COP(O)(=S)OC2C1O (stereo not shown) [Rps-Br-cAMPS] |  |  |  |  | IC50 [1, 14]: > 100 µM; IC50 [4, 14]: > 100 µM
29 | C#Cc1cccc(Nc2ncnc3cc(OCCOC)c(OCCOC)cc23)c1 [Erlotinib] | > 10 | > 10 | > 10 | > 10 | 
30 | O=S(=O)(NCCNC/C=C/c1ccc(Br)cc1)c1cccc2cnccc12 [H-89] |  |  |  |  | IC50 [1, 14]: > 25 µM; IC50 [4, 14]: > 25 µM
